Source: publication PMC4564614, “Purification and Characterization of Asparaginase from Phaseolus vulgaris Seeds” (Evidence-based Complementary and Alternative Medicine : eCAM, 2015)

Tested on: T1, L-asparaginase I (asparaginase I)
T1 construct: gene ASPG1
Conditions: 50 mM Tris-HCl pH 8.0, 50 mM KCl, 37 °C (standard assay); L-asparagine 2-20 mM

Km: 6.72 mM
Structure (SMILES): NC(=O)C[C@H](N)C(=O)O [L-asparagine]
